Test results as given in patent US10597649B2, “Tau protease compositions and methods of use” (Oligomerix, Inc., priority 2011, dated 2020).

Key:
[1] = system: Human APP 667-676 peptide; assay: Cleavage of APP 667-676 peptide (HPLC); assay type: biochemical; settings: 20 hr at 37° C.
Description: Human APP 667-676 peptide [[…](SEQ ID NO:14) (Anaspec, Fremont, Calif., USA)] was incubated 20 hr at 37° C. with or without […] tau 4R2N trimer protease and analyzed by reverse phase HPLC (SystemGold® 32Karat™ LC-CE System, Beckman Coulter, Inc.) using a linear gradient of 0 to 60% acetonitrile in 0.1% TFA on an analytical C18 column (12.5 cm×2.1 mm, […], Supelco). […] The asterisk indicates an artifactual peak unrelated to the peptide. Tau 4R2N trimer protease cut APP at the penultimate amino acid adjacent to the β-secretase (BACE) cut site thereby generating Aβ(1-42). Tau protease activity has been observed extracellularly in the CSF. Generation of Aβ(1-42) can stimulate inflammation within a neuron leading to BACE up-regulation. Furthermore Aβ(1-42) has been observed in plaques and can be converted to Aβ(1-42) by BACE cleavage of the N-terminal methionine. The implications are that tau protease may be the initial activation step for the amyloid cascade;

[2] = system: Tau 4R2N (amino acids 335-353) peptide substrate; assay: Peptide digest HPLC assay of tau protease activity; assay type: biochemical, human; settings: with 11 μg tau trimer protease, 20 hr at 37° C.
Source text: N-terminal sequencing of fragments using mass spectrometry identified autoproteolytic cut sites. In particular, cutting at the Lys340-Ser341 (340KS341) cut site occurred readily. Therefore, a 19-amino acid peptide corresponding to amino acids 335G to 353L of tau protein was synthesized that contained the KS cut site (340KS341). The reaction was monitored by reverse-phase high-pressure liquid chromatography (HPLC). […] An asterisk marks a non-specific contaminant that was used as a marker. […] 10 μg of tau peptide 335-353 ([…]) (SEQ ID NO:19) was custom synthesized by Genscript (Piscataway, N.J., USA) and 1 mg was dissolved in 1 mL of buffer (25 mM Tris-HCl pH 7.4). […] 32Karat™ LC-CE System, Beckman Coulter, Inc., (Indianapolis, Ind.)] using a linear gradient of acetonitrile in 0.1% TFA 0-60% acetonitrile on an analytical C18 column (12.5 cm×2.1 mm, 5 μm, (Supelco, Bellefonte, Pa., USA). 30 μg of peptide was incubated without tau protease as a negative control and analyzed with the same method;
Cleavage of the peptide substrate for tau protease, Tau 4R2N (amino acids 335-353) […] (SEQ ID NO.19), was used to monitor activity using reverse-phase HPLC. […] The large peak in the lower trace indicated intact peptide was greatly diminished in the upper trace and replaced with two smaller peaks F1 and F2 that represent fragments generated by TP-210. […]

Substance: tau 4R2N trimer: purified disulfide-mediated trimer species of recombinant human tau 4R2N
- cutting of APP 667-676 peptide [1]: cuts APP 667-676 peptide
- completeness of the peptide cleavage reaction [2]: more than 90%
